The source made the active and inactive calls. The rule behind the calls is not given here.
Tests used:
Diaporthe ampelina [1] = test: Antifungal activity against Diaporthe ampelina infected grape plant assessed as disease severity at internodes at 0.25 […] a.i./ha incubated for 20 hr prior to treatment with 16 hr wetness period followed by 4 hr of drying period measured after 4 weeks in presence of regulaid (reference value: 7.3%); type: functional
Diaporthe ampelina [2] = test: (§1) Antifungal activity against Diaporthe ampelina infected grape plant assessed as disease severity at internodes at 0.25 […] a.i./ha incubated for 24 hr prior to treatment with 20 hr wetness period followed by 4 hr of drying period measured after 4 weeks in presence of regulaid (reference value: 4.7%); type: functional
Diaporthe ampelina [3] = test: Antifungal activity against Diaporthe ampelina infected grape plant assessed as decrease in lesions on leaf at 0.25 […] a.i./ha incubated for 20 hr prior to treatment with 16 hr wetness period followed by 4 hr of drying period measured after 4 weeks relative to control in presence of regulaid; type: functional, organism-based
Diaporthe ampelina [4] = test: Antifungal activity against Diaporthe ampelina infected grape plant assessed as decrease in lesions on leaf at 0.25 […] a.i./ha incubated for 48 hr prior to treatment with 24 hr wetness period followed by 24 hr of drying period measured after 4 weeks relative to control in presence of regulaid; type: functional, organism-based
Diaporthe ampelina [5] = test: Antifungal activity against Diaporthe ampelina infected grape plant assessed as disease severity at internodes at 1.7 m3/ha incubated for 24 hr prior to treatment with 20 hr wetness period followed by 4 hr of drying period measured after 4 weeks in presence of regulaid (reference value: 3.2%); type: functional
Diaporthe ampelina [6] = test: Antifungal activity against Diaporthe ampelina infected grape plant assessed as decrease in lesions on leaf at 0.25 […] a.i./ha treated 3 to 6 hr prior to inoculation followed by 24 hr wetness period measured after 4 weeks relative to control in presence of regulaid; type: functional, organism-based
Diaporthe ampelina [7] = test: Antifungal activity against Diaporthe ampelina infected grape plant assessed as decrease in lesions on leaf at 0.25 […] a.i./ha incubated for 24 hr prior to treatment with 20 hr wetness period followed by 4 hr of drying period measured after 4 weeks relative to control in presence of regulaid; type: functional, organism-based
Diaporthe ampelina [8] = test: Antifungal activity against Diaporthe ampelina infected grape plant assessed as disease severity at internodes at 0.25 […] a.i./ha treated 3 to 6 hr prior to inoculation followed by 24 hr wetness period measured after 4 weeks in presence of regulaid (reference value: 2.9%); type: functional
Diaporthe ampelina [9] = test: as §1, with “for 48” for “for 24”, “with 24” for “with 20”, “by 24” for “by 4”, “value: 12.2%)” for “value: 4.7%)”; type: functional
Diaporthe ampelina [10] = test: Antifungal activity against Diaporthe ampelina infected grape plant assessed as re-isolation of mycelium from infected vines at 0.25 […] a.i./ha treated for weeks in presence of regulaid followed by inoculation on medium measured after 72 hr (reference value: 62.5%); type: functional
Diaporthe ampelina [11] = test: Antifungal activity against Diaporthe ampelina infected grape plant assessed as decrease in lesions on leaf at 0.25 […] a.i./ha treated 3 to 6 hr prior to inoculation followed by 24 hr wetness period measured after 4 weeks relative to control; type: functional, organism-based
Diaporthe ampelina [12] = test: Antifungal activity against Diaporthe ampelina infected grape plant assessed as disease severity at internodes at 0.25 […] a.i./ha treated 3 to 6 hr prior to inoculation followed by 24 hr wetness period measured after 4 weeks (reference value: 2.6%); type: functional
Diaporthe ampelina [13] = test: Antifungal activity against Diaporthe ampelina infected grape plant assessed as decrease in lesions on leaf at 1.7 m3/ha incubated for 24 hr prior to treatment with 20 hr wetness period followed by 4 hr of drying period measured after 4 weeks relative to control in presence of regulaid; type: functional, organism-based

## CO/C=C(/C(=O)OC)c1ccccc1Oc1cc(Oc2ccccc2C#N)ncn1 [AZOXYSTROBIN]
Diaporthe ampelina [1]
  Activity: 5.3%
Diaporthe ampelina [2]
  Activity: 4.9%
Diaporthe ampelina [3]
  Activity: inactive
Diaporthe ampelina [4]
  Activity: inactive
Diaporthe ampelina [5]
  Activity: 3.2%
Diaporthe ampelina [6]
  Activity: Active
Diaporthe ampelina [7]
  Activity: inactive
Diaporthe ampelina [8]
  Activity: 0.1%
Diaporthe ampelina [9]
  Activity: 3.7%
Diaporthe ampelina [10]
  Activity: 8.4%
Diaporthe ampelina [11]
  Activity: Active
Diaporthe ampelina [12]
  Activity: 0.3%
Diaporthe ampelina [13]
  Activity: inactive
